Experimental data as given in publication PMC12221113, “Deferasirox Derivatives as Inhibitors of Kallikrein‐Related Peptidases Associated to Neurodegenerative Diseases” (Chemmedchem, 2025).
Where two headings read alike, the source gives them in different places.

Columns and labels:
[1] = CCK8 cell viability assay, SH-SY5Y; type: cell-based; conditions: human, SH-SY5Y neuroblastoma cells, 25 and 50 μM, in absence or presence of iron (100 µM FAC), read-out: percentage of cell viability
Procedure: (§1) Human neuroblastoma cell line (SH-SY5Y) was purchased at American Type Culture Collection
(§2) Both cell lines were cultured in Dulbecco’s Modified Eagle Medium (DMEM)
(§3) containing 10% heat inactivated fetal bovine serum (FBS), 1% Penicillin/Streptomycin, 10 mM
(§4) Sodium Pyruvate, 2 mM L-Glutamine and 4,5 g/L D-glucose at 37°C, in a 5% humidified
(§5) incubator. Cells were cultivated until 80% confluence in flasks then were plated in 96-well
(§6) plates. For this experiment, SH-SY5Y were used at 10th passage and HMC3 at 13th. SH-SY5Y
(§7) cells were seeded at a density of 3x10^4 cells/well and HMC3 at a density of 10^4 cells/well. After
(§8) seeding, cells were left in complete medium overnight to adhere to the plates. After that, cells
(§9) were treated using inhibitors solubilized in DMSO at stock concentrations of 2,5 mM or 5 mM
(§10) with or without 10 mM iron. Iron solution was prepared by using FAC (Ferric Ammonium
(§11) Citrate, Sigma®) at stock concentration of 25 mM. After 24h of treatment, cell viability was
(§12) assessed with the CCK8 (Cell-Counting Kit 8) from TargetMol. After treatments, 10 µL of CCK8
(§13) reagent was diluted in 90 µL of complete medium and added to each well. After 3 hours at
(§14) 37°C, cell viability was assessed by absorbance measurement at 460 nm. Each viability assay
(§15) is the mean of two independent experiments performed in triplicates.
(§16) treated for 24h with the two selected concentrations of inhibitor (25 µM or 50 µM)
(§17) preincubated or not with 100 µM of FAC. The data are the mean of two independent
experiments performed in triplicates.

[2] = CCK8 cell viability assay, HMC3; type: cell-based; conditions: human, HMC3 microglial cells; HMC3, 24h, 25 and 50 μM, in absence or presence of iron (100 µM FAC); read-out: percentage of cell viability
Procedure: as §1, §2, §3, §4, §5, §6, §7, §8, §9, §10, §11, §12, §13, §14, §15, §16, §17
experiments performed in triplicates.

KLK13 = biological target: T1, KLK13 (Homo sapiens, UniProt Q9UKR3); test: Selectivity screening, KLK13; conditions: read-out: percentage of inhibition KLK13
T1 sequence (Q9UKR3 26-277 limits assumed): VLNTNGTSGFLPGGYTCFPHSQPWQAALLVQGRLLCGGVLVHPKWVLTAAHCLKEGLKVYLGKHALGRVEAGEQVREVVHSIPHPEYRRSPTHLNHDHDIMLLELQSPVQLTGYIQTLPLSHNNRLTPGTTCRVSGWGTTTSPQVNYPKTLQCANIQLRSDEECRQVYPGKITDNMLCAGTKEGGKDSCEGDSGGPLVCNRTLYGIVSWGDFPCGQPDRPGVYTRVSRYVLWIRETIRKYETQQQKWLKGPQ
Procedure: (§18) All enzyme stocks were stored at −20 °C and purchased from R&D Systems as proenzymes (KLK6, KLK8, KLK13) or as mature and active forms (KLK5). Activation of KLK6, KLK8, and KLK13 is performed in optimized buffers. The activation reaction is initiated by Lysyl‐Endopeptidase at 2.5 mU mL^−1 (Wako Bioproducts). The activation reaction is stopped by diluting the enzyme to 0.5 μg mL^−1 in assay buffer (50 mM Tris, 1 M Citrate, 0.05% w/v Brij‐35, pH 8) to obtain an active enzyme stock. KLK1 was purchased from R & D Systems as pro‐KLK1. Activation of KLK1 is performed in 50 mM Tris‐HCl, 10 mM CaCl2, 150 mM NaCl, 0.05% Brij‐35, pH 7.5. The activation reaction is initiated by bacterial thermolysin at 0.4 μg mL^−1 (Sigma‐Aldrich) and stopped by addition of 100 mM EDTA (Sigma‐Aldrich) to obtain an active KLK1 stock at the same concentration of 100 μg mL^−1. The activation reactions for KLK7 are initiated bacterial thermolysin at 0.4 μg mL^−1 (Sigma‐Aldrich) and stopped by addition of 100 mM EDTA (Sigma‐Aldrich) to obtain active stocks. All enzyme stocks were stored at −20 °C. H‐PFR‐AMC (KLK1), Boc‐VPR‐AMC (KLK5, KLK8, KLK13), Boc‐QAR‐AMC (KLK6, Plasmin), substrates were purchased from Bachem. MeO‐Suc‐RPY‐AMC (KLK7) substrate was purchased from AAT Bioquest. Plasmin (Sigma‐Aldrich) was purchased in mature and active form.
(§19) Compounds were screened on KLKs using a BMG Fluostar microplate reader (black 96‐well microplates). Hit compounds were screened on the selected group of enzymes using optimized concentrations and buffers (KLK1 0.8 nM, KLK4 10 nM, KLK5 0.2 nM; KLK6 1.9 nM; KLK7 6 nM; KLK8 0.2 nM; KLK11 5.2 nM, KLK13 0.47 nM, KLK14 2.5 nM, plasmin 3.3 nM, thrombin 0.1 nM, tissue‐plasminogen activator (tPA) 0.1 nM, matriptase 1 nM, cathepsin L 2 nM) either in absence or prior preincubation in the presence of 100 μM of Fe^3+.
(§20) The proteases are first preincubated for 15 min with each compound (50 and 100 μM) or with DMSO (<2%, negative control) in a total volume of 85 μL of 50 mM Tris buffer, 1 M citrate, 0.05% Brij‐35, pH 7, 37 °C. The reaction is triggered by the appropriate substrate at the optimized concentration in 15 μL of 50 mM Tris buffer, 1 M citrate, 0.05% Brij‐35, pH 8 (H‐PFR‐AMC 100 μM; Boc‐VPR‐AMC 100 μM; Boc‐QAR‐AMC 100 μM; Meo‐Suc‐RPY‐AMC 150 μM, Z‐LR‐AMC 100 μM, Z‐GGR‐AMC 100 μM) and followed for 30 min at 37 °C. […] The release of the AMC fluorescent group is detected using the following wavelengths: λex = 360 nm and λem = 460 nm. The percent inhibition is calculated from Equation (1) where V 0 is the initial rate of the DMSO control, the initial rate in the presence of the inhibitor V i. (1) %inhibition=(1−(vi/v0))×100

[3] = Calcein transchelation (calcein release) assay; type: physicochemical; conditions: calcein 100 nM, 4 h at room temperature; estimation, assay not fully quantitative; read-out: Apparent affinity (pseudo‐affinity constant Kd for Fe3+)
[4] = UV–vis spectroscopy of Fe3+ chelation and complex stability; type: physicochemical; conditions: activity buffer pH 7.4, 1:1 ratio, t = 0 to 240 min
Procedure: UV–vis analysis of DFX was first performed to monitor the chelation process and the stability of the Fe^3+ complex over time at a 1:1 ratio, typically representing the duration of inhibition assay (30 min to 4 h) (Figure S1, Supporting Information). In these conditions of pH (7.4) and ligand‐to‐iron ratio and according to Steinhauser et al. the main species in solution is assigned to [Fe(DFX)2]^3−.^[ [49] ^] Indeed, we aimed to explore not only the chelation properties but also the impact of the chelated species on enzyme inhibition.
2.c. Chelation properties, iron interactions, and selectivity profiles of selected compounds targeting KLK activity.
Figure S2: Stability of the chelated species as monitored by spectrophotometry. UV/VIS spectra of molecules alone using activity buffer at pH 7.4 (in orange at 500 µM) or in the presence of FeCl3 (ratio of 1:1) at different times (t = 0 in red, 30 min in black, 60 min in blue and 240 min in green). The purple trace corresponds to iron only at 500 µM All data are representative of 2 independent experiments performed in duplicate. […]

KLK14 = biological target: T2, KLK14 (Homo sapiens, UniProt Q9P0G3); test: Selectivity screening, KLK14; type: biochemical; conditions: 50 μM compound, without Fe3+; read-out: percentage of inhibition KLK14
T2 construct: purchased R&D Systems
T2 sequence (Q9P0G3 25-251): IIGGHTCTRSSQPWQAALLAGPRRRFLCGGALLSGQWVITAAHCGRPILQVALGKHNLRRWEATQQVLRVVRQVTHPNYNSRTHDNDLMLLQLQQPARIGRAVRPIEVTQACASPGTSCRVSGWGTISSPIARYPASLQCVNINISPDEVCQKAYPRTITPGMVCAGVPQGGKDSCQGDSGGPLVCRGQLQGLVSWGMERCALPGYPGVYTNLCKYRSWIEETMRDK

KLK8 = biological target: T3, KLK8 (Homo sapiens, UniProt O60259); test: KLK8 fluorogenic enzyme inhibition assay (Boc-VPR-AMC); conditions: for Ki′ KLK8 / Type of inhibition KLK8: Dixon plot, without Fe3+; for Ki′ KLK8: 100 μM substrate; for inhibition at 50 µM: read-out: percentage of inhibition KLK8
T3 sequence (O60259 33-260): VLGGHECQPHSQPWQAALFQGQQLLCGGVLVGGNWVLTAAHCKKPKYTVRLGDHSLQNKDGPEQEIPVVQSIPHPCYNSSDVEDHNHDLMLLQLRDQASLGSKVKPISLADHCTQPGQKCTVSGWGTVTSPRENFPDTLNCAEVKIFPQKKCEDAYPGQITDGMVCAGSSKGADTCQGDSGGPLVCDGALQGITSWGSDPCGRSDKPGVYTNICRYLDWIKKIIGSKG
Procedure: (§21) All enzyme stocks were stored at −20 °C and purchased from R&D Systems as proenzymes (KLK6, KLK8, KLK13) or as mature and active forms (KLK5). Activation of KLK6, KLK8, and KLK13 is performed in optimized buffers. The activation reaction is initiated by Lysyl‐Endopeptidase at 2.5 mU mL^−1 (Wako Bioproducts). The activation reaction is stopped by diluting the enzyme to 0.5 μg mL^−1 in assay buffer (50 mM Tris, 1 M Citrate, 0.05% w/v Brij‐35, pH 8) to obtain an active enzyme stock. KLK1 was purchased from R & D Systems as pro‐KLK1. Activation of KLK1 is performed in 50 mM Tris‐HCl, 10 mM CaCl2, 150 mM NaCl, 0.05% Brij‐35, pH 7.5. The activation reaction is initiated by bacterial thermolysin at 0.4 μg mL^−1 (Sigma‐Aldrich) and stopped by addition of 100 mM EDTA (Sigma‐Aldrich) to obtain an active KLK1 stock at the same concentration of 100 μg mL^−1. […] All enzyme stocks were stored at −20 °C. H‐PFR‐AMC (KLK1), Boc‐VPR‐AMC (KLK5, KLK8, KLK13), Boc‐QAR‐AMC (KLK6, Plasmin), substrates were purchased from Bachem. […] Plasmin (Sigma‐Aldrich) was purchased in mature and active form.
as §19, §20
(§22) The equation is entered in the Kaleidagraph 4.5 software for curve fitting f([I]) = % Inhibition, where [I] is the inhibitor concentration.
(§23) The mechanism of inhibition was determined by varying substrate and inhibitor concentrations, the type of inhibition and inhibition parameter (Ki or Ki′) are determined by Dixon's plots.

[5] = tested on: KLK's of the CNS triad (KLK1‐KLK6‐KLK8); test: Reversibility analysis by dilution after preincubation; type: biochemical, human; conditions: 100-fold dilution after 15 min preincubation
Procedure: Aliquots of reaction mixtures (1 μL) were added to 99 μL of buffer containing the fluorogenic substrate (experimental conditions identical to the routine protocol used for a given enzyme). The mechanism of inhibition was determined by varying substrate and inhibitor concentrations, the type of inhibition and inhibition parameter (Ki or Ki′) are determined by Dixon's plots.

KLK4 = biological target: T4, KLK4 (Homo sapiens, UniProt Q9Y5K2); test: Selectivity screening, KLK4; type: biochemical; conditions: 50 μM compound, without Fe3+; read-out: percentage of inhibition KLK4
T4 construct: purchased R&D Systems
T4 sequence (Q9Y5K2 31-254): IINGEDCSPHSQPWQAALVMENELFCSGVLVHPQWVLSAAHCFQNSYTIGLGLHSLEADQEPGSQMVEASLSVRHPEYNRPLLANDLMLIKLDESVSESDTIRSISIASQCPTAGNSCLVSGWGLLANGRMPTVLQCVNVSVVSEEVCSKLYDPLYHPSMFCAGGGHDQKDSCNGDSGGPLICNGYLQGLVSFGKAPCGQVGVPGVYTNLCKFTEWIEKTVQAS

KLK11 = biological target: T5, KLK11 (Homo sapiens, UniProt Q9UBX7); test: Selectivity screening, KLK11; type: biochemical; conditions: 50 μM compound, without Fe3+; read-out: percentage of inhibition KLK11
T5 construct: purchased R&D Systems
T5 sequence (Q9UBX7 54-282): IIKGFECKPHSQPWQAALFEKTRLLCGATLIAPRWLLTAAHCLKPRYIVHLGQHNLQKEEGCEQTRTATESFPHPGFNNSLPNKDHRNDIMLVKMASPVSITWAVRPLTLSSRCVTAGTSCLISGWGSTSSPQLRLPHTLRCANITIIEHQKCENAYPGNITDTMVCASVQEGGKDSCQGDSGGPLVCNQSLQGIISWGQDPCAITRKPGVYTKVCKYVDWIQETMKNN

KLK5 = biological target: T6, KLK5 (Homo sapiens, UniProt Q9Y337); test: Selectivity screening, KLK5; conditions: read-out: percentage of inhibition KLK5
T6 sequence (Q9Y337 67-293 limits assumed): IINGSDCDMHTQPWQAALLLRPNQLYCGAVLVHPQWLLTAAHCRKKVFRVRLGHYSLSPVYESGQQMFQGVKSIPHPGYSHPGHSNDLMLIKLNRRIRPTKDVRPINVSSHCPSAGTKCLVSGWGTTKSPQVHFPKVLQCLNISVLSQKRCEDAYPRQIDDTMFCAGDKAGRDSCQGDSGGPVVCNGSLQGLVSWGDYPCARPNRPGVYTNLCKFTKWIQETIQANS
Procedure: as §18, §19, §20

KLK7 = KLK7 (Homo sapiens, UniProt P49862); test: Selectivity screening, KLK7; conditions: read-out: percentage of inhibition KLK7
KLK7, sequence (P49862 30-253): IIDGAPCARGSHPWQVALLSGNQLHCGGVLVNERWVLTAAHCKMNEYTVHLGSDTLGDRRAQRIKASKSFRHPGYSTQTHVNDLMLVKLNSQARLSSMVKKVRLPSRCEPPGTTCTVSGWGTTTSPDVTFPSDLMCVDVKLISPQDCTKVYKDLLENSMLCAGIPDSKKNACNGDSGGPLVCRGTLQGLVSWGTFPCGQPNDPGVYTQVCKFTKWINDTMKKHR
Procedure: as §18
(§24) Compounds were screened on KLKs using a BMG Fluostar microplate reader (black 96‐well microplates). […]
(§25) The proteases are first preincubated for 15 min with each compound (50 and 100 μM) or with DMSO (<2%, negative control) in a total volume of 85 μL of 50 mM Tris buffer, 1 M citrate, 0.05% Brij‐35, pH 7, 37 °C. […] The release of the AMC fluorescent group is detected using the following wavelengths: λex = 360 nm and λem = 460 nm. The percent inhibition is calculated from Equation (1) where V 0 is the initial rate of the DMSO control, the initial rate in the presence of the inhibitor V i. […]

[6] = tested on: targeted KLKs (KLK1, KLK6, KLK8); test: Impact of preincubated compound (50 μM) and Fe3+ (100 μM) on targeted KLKs; type: biochemical, human; conditions: compound 50 μM preincubated with Fe3+ 100 μM
Procedure: Next, we evaluated the impact of preincubated mixtures of each compound at 50 μM and Fe^3+ at 100 μM to model an iron overload condition on targeted KLKs (Figure S5, Supporting Information).

KLK6 = KLK6 (Homo sapiens, UniProt Q92876); test: KLK6 fluorogenic enzyme inhibition assay (Boc-QAR-AMC); conditions: for inhibition at 50 µM: read-out: percentage of inhibition KLK6
Procedure: as §21, §19, §20, §22, §23

KLK1 = KLK1 (Homo sapiens, UniProt P06870); test: KLK1 fluorogenic enzyme inhibition assay (H-PFR-AMC); conditions: for Type of inhibition KLK1: Dixon plot, without Fe3+; for IC50: IC50 KLK1, 15 min preincubation at 37 °C, NI = not a hit (not above 50% inhibition at 50 μM); for inhibition at 50 µM: read-out: percentage of inhibition KLK1
KLK1, sequence (P06870 25-262): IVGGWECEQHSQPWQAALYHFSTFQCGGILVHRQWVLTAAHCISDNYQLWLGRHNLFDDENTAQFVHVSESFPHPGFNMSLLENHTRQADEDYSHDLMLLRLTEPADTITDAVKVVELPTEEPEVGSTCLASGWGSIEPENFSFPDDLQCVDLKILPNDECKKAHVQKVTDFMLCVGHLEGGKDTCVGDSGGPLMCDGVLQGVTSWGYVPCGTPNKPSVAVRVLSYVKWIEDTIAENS
Procedure: as §21, §19, §20, §22, §23

Cathepsin L = Cathepsin L (Homo sapiens, UniProt P07711); test: Selectivity screening, cathepsin L; type: biochemical; conditions: 50 μM compound, without Fe3+; read-out: percentage of inhibition Cathepsin L
Cathepsin L, sequence (P07711 114-333, species assumed): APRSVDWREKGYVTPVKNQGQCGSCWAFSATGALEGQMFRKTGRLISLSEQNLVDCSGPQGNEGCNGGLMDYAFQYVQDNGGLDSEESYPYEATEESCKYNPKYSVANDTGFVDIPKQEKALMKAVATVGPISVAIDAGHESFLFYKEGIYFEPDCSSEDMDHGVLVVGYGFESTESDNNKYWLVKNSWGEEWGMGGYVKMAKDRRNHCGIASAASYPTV

Plasmin = Plasmin (Homo sapiens, UniProt P00747); test: Selectivity screening, plasmin; conditions: read-out: percentage of inhibition Plasmin
Plasmin, sequence (P00747 581-810 limits assumed, species assumed): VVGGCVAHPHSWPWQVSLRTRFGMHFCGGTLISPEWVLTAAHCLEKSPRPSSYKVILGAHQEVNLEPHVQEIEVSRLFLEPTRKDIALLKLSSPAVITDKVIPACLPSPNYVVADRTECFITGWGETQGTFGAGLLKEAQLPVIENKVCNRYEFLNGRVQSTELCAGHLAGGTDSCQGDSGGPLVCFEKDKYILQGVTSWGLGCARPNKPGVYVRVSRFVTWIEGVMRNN
Plasmin, sequence (P00747 97-580 partner limits assumed, species assumed): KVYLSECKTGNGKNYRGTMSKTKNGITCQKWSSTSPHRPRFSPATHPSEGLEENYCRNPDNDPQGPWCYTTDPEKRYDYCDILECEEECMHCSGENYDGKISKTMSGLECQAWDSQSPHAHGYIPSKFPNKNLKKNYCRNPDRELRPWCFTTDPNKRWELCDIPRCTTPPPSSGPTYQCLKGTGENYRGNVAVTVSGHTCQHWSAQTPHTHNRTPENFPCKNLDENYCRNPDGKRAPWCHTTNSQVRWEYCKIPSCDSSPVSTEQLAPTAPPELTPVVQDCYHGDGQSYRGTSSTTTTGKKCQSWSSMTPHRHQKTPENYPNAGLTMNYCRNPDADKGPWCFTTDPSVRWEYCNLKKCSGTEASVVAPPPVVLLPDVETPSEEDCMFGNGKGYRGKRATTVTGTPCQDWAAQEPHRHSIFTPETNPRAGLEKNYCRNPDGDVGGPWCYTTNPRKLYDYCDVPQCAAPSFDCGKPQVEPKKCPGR
Procedure: All enzyme stocks were stored at −20 °C and purchased from R&D Systems as proenzymes (KLK6, KLK8, KLK13) or as mature and active forms (KLK5). Activation of KLK6, KLK8, and KLK13 is performed in optimized buffers. The activation reaction is initiated by Lysyl‐Endopeptidase at 2.5 mU mL^−1 (Wako Bioproducts). The activation reaction is stopped by diluting the enzyme to 0.5 μg mL^−1 in assay buffer (50 mM Tris, 1 M Citrate, 0.05% w/v Brij‐35, pH 8) to obtain an active enzyme stock. KLK1 was purchased from R & D Systems as pro‐KLK1. Activation of KLK1 is performed in 50 mM Tris‐HCl, 10 mM CaCl2, 150 mM NaCl, 0.05% Brij‐35, pH 7.5. […]
as §24, §25

Thrombin = Thrombin (Homo sapiens, UniProt P00734); test: Selectivity screening, thrombin; type: biochemical; conditions: 50 μM compound, without Fe3+; read-out: percentage of inhibition Thrombin
[7] = IC50 KLK8, 15 min preincubation at 37 °C, NI = not a hit (not above 50% inhibition at 50 μM)

Compound	viability at 24 h [1] [%]	viability at 24 h [2] [%]	inhibition at 50 µM (KLK13) [%]	Kd [3] [nM]	inhibition at 50 µM (KLK14) [%]	Ki′ KLK8 (KLK8) [µM]	Type of inhibition KLK8 (KLK8)	inhibition at 50 µM (KLK8) [%]	reversibility and time dependence of inhibition [5]	inhibition at 50 µM (KLK4) [%]	inhibition at 50 µM (KLK11) [%]	inhibition at 50 µM (KLK5) [%]	IC50 (KLK8) [µM]	inhibition at 50 µM (KLK7) [%]	change of inhibitory activity in the presence of iron [6]	IC50 (KLK1) [µM]	inhibition at 50 µM (KLK1) [%]	also measured
O=C(O)c1ccc(-n2nc(-c3ccccc3O)nc2-c2ccccc2O)cc1 [3a, Deferasirox]	> 80	> 80	95.1	0.549 ± 0.007	94.2	8	Uncompetitive	70.1	reversible and time‐independent inhibitors	80.6	90.6	85.1						UV–vis spectrum in the presence of FeCl3 (iron complex formation) [4]: appearance of an absorption band with a maximum at 468 nm; Type of inhibition KLK8 (KLK8; listed as DFX): uncompetitive inhibition; IC50 (KLK8; [7]): 29.2 ± 1 µM; IC50 (KLK8; IC50 KLK8, initial screening of an in‐house array of 1,2,4‐triazole derivatives): ~30 µM
O=C(O)c1cccc(-n2nc(-c3ccccc3O)nc2-c2ccccc2O)c1 [3b]	> 80	> 80		0.063 ± 0.011	95.1	18	Uncompetitive	62.1	reversible and time‐independent inhibitors	83.8	90.9	98.1	21.4 ± 0.4	88.1				
Oc1ccccc1-c1n[nH]c(-c2ccccc2O)n1 [3c]				0.032 ± 0.012											significant higher inhibitory potency in the presence of Fe^3+ on all KLKs			IC50 (KLK8; [7]): > 50 µM
CC(C)(C)n1nc(-c2ccccc2O)nc1-c1ccccc1O [3d]				2.15 ± 0.11									> 50		do not show an increased inhibitory activity in the presence of iron			
O=C(c1ccccc1)n1nc(-c2ccccc2O)nc1-c1ccccc1O [3e]	> 80	> 80	97.1	0.41 ± 0.035					reversible and time‐independent inhibitors	67.2		98.8	> 50			23.3 ± 0.9	82.1	inhibition at 50 µM (KLK6): 82.4%; Ki (KLK1): 24 µM; Type of inhibition KLK1 (KLK1): competitive inhibitor
O=C(NC(Cc1c[nH]c2ccccc12)C(=O)O)c1ccc(-n2nc(-c3ccccc3O)nc2-c2ccccc2O)cc1 (centres unmarked) [3lb]	> 80	> 80	98.1		98.8			50.2	reversible and time‐independent inhibitors	99.7	81.4	98.2	27.1 ± 1.1	90.5			90.1	inhibition at 50 µM (Cathepsin L): < 50%; Ki (KLK8): 12 µM; inhibition at 50 µM (Plasmin): 60.5%
O=C(O)C1CCCN1C(=O)c1ccc(-n2nc(-c3ccccc3O)nc2-c2ccccc2O)cc1 (centres unmarked) [3mb]	> 80	> 80	85.2	0.029 ± 0.017	89.7	25	uncompetitive inhibition	63.1	reversible and time‐independent inhibitors	77.3	76.7	95.1	25.9 ± 0.7	70.1				inhibition at 50 µM (Thrombin): 61.1%
Oc1ccc(-n2nc(-c3ccccc3O)nc2-c2ccccc2O)cc1 [3r]	> 80	> 80	98.3	0.062 ± 0.014	62.2				reversible and time‐independent inhibitors	84.3		85.5	> 50			16.4 ± 1.3	79.1	inhibition at 50 µM (KLK6): < 50%; inhibition at 50 µM (Thrombin): < 50%; Ki (KLK1): 29 µM; Type of inhibition KLK1 (KLK1): Noncompetitive
CC(=O)Oc1ccccc1-c1nc(-c2ccccc2OC(C)=O)n(-c2ccc(C(=O)O)cc2)n1 [compound 22]													> 50		do not show an increased inhibitory activity in the presence of iron	> 50		IC50 (KLK6): > 50 µM; UV–vis spectrum in the presence of FeCl3 (iron complex formation) [4]: no changes in the absorption spectra
